In ChEMBL document CHEMBL1909046, “DrugMatrix in vitro pharmacology data”:

How the values were obtained:
[1] = target: Tyrosine-protein kinase Fyn (Homo sapiens, UniProt P06241); experiment: biochemical; assay type: cell-based, Insect cells; conditions: insect cells;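 also: enzymatic inhibition of Fyn kinase activity measured with Poly(Glu:Tyr) as the phosphorylation substrate; in other assays of this panel Not Active means under 50% inhibition at 10 µM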
[2] = target: T1, C-X-C chemokine receptor type 2 (Homo sapiens, UniProt P25025); assay type: cell membranes, Membrane; conditions: cho-k1; also: in other assays of this panel Not Active means under 50% inhibition at 10 µM
T1 sequence (P25025 whole entry): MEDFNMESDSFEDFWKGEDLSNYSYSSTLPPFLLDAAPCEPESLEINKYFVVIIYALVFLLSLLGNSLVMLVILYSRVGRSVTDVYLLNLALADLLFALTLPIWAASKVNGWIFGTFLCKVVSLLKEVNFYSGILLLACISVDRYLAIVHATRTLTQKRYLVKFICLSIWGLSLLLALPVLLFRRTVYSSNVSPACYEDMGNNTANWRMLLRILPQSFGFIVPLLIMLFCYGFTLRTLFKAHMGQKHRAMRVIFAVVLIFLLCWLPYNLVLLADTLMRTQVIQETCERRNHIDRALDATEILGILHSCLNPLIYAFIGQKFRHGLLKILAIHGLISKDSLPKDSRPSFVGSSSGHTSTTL

[3] = target: T2, Alpha-1A adrenergic receptor (Rattus norvegicus, UniProt P43140); experiment: DRUGMATRIX: Alpha-1A adrenergic receptor radioligand binding (ligand: prazosin); assay type: cell membranes, Wistar, Submaxillary gland, Membrane; conditions: Not Active = under 50% inhibition at 10 µM
T2 sequence (P43140 whole entry): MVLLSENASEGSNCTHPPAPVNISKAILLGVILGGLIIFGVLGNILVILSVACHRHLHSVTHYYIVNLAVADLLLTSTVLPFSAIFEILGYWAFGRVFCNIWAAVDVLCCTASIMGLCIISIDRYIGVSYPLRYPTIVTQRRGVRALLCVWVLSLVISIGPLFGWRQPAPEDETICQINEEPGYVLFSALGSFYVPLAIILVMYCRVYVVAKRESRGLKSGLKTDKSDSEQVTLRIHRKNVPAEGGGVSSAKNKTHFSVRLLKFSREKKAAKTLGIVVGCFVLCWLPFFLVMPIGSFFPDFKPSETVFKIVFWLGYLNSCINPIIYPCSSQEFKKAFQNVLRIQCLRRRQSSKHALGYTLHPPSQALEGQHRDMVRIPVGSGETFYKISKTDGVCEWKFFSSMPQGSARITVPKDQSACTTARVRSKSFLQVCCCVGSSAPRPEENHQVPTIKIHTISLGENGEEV

Cytochrome P450 3A4 = Cytochrome P450 3A4 (Homo sapiens, UniProt P08684); conditions: bti-tn-5b1-4; also: in other assays of this panel Not Active means under 50% inhibition at 10 µM
[4] = target: T3, Neuropeptide Y receptor type 2 (Homo sapiens, UniProt P49146); assay type: cell membranes, KAN-TS, Membrane; conditions: kan-ts; also: in other assays of this panel Not Active means under 50% inhibition at 10 µM
T3 sequence (P49146 whole entry): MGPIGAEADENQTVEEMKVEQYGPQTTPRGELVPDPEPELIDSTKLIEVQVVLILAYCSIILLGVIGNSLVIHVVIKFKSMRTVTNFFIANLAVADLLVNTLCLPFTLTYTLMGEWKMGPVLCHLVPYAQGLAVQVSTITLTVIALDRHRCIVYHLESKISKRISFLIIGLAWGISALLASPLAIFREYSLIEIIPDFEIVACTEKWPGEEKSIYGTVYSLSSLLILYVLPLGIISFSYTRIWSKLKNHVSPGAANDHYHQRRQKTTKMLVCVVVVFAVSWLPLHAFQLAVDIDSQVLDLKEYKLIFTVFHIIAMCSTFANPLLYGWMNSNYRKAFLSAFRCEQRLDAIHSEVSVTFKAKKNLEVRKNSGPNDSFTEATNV

Glucocorticoid receptor = target: T4, Glucocorticoid receptor (Homo sapiens, UniProt P04150); conditions: hela s3; also: in other assays of this panel Not Active means under 50% inhibition at 10 µM
T4 sequence (P04150 whole entry): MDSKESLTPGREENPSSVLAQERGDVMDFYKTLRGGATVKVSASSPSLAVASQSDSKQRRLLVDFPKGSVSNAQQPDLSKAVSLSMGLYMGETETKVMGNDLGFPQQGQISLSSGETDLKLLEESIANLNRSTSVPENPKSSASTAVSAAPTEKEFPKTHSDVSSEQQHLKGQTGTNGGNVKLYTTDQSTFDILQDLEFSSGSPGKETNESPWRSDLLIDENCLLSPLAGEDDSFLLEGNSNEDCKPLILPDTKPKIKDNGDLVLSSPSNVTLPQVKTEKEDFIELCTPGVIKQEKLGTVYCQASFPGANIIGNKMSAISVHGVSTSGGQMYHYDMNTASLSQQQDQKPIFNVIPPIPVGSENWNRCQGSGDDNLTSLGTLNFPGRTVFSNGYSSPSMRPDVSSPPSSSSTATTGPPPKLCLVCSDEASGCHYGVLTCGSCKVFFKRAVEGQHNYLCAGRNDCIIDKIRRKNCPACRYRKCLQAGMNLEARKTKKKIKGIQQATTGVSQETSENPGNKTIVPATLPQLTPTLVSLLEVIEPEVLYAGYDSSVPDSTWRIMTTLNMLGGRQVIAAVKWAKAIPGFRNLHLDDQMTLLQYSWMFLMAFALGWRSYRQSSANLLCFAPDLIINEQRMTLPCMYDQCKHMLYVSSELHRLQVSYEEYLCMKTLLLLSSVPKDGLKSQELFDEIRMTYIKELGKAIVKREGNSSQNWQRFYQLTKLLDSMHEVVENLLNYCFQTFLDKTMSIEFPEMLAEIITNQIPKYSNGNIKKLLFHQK

[5] = DRUGMATRIX: Glutamate, NMDA, Agonism radioligand binding (ligand: [3H] CGP-39653); assay type: cell membranes, Rattus norvegicus, Wistar, Cerebral cortex, Membrane; conditions: Not Active = under 50% inhibition at 10 µM

Chain of Cytochrome P450 3A4 (P08684 whole entry): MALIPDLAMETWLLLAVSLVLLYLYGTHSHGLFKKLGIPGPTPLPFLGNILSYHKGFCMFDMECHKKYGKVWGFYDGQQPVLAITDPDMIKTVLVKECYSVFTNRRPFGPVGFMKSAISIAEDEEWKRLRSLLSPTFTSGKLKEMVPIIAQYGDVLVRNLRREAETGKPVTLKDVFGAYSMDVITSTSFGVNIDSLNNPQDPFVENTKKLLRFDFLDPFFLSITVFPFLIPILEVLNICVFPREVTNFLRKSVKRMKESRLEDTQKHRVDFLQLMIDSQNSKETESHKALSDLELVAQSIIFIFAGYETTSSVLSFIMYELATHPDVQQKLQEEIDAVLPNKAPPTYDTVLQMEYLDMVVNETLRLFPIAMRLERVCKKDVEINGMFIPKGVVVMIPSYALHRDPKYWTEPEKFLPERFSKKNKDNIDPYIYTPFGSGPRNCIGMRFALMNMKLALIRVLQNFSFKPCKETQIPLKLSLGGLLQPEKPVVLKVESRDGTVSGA
Chain of Tyrosine-protein kinase Fyn (P06241 whole entry): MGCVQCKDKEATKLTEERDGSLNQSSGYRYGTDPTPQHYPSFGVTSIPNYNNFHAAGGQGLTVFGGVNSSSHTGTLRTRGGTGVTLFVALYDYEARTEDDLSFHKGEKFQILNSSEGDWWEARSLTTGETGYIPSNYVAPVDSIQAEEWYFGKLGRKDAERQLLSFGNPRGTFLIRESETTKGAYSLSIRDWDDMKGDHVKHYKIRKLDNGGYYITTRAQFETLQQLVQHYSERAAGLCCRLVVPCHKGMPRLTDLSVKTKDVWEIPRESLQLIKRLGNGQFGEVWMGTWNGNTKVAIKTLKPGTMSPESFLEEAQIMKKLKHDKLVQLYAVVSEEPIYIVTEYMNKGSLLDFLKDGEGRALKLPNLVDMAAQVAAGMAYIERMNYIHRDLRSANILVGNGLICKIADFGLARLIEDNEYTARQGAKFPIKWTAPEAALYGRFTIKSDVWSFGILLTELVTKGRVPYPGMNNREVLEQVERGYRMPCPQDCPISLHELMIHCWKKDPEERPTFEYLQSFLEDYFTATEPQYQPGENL

MANGANESE CHLORIDE ANHYDROUS
Not Active: IC50 [1] | Ki [1] | IC50 [2] | Ki [2] | IC50 [3] | Ki [3] | IC50 (Cytochrome P450 3A4) | Ki (Cytochrome P450 3A4) | IC50 [4] | Ki [4] | IC50 (Glucocorticoid receptor) | Ki (Glucocorticoid receptor) | IC50 [5] | Ki [5]

CNC1(c2ccccc2Cl)CCCCC1=O (stereo not drawn) [KETAMINE]
Not Active: IC50 [1] | IC50 [2] | IC50 [3] | IC50 (Cytochrome P450 3A4) | Ki (Cytochrome P450 3A4) | IC50 [4] | IC50 (Glucocorticoid receptor) | IC50 [5] | Ki [5]

Nc1cc(N2CCCCC2)nc(N)[n+]1[O-] [MINOXIDIL]
Not Active: IC50 [1] | IC50 [2] | IC50 [3] | IC50 (Cytochrome P450 3A4) | Ki (Cytochrome P450 3A4) | IC50 [4] | IC50 (Glucocorticoid receptor) | IC50 [5] | Ki [5]

COc1c2occc2cc2ccc(=O)oc12 [METHOXSALEN]
Not Active: IC50 [1] | IC50 [2] | IC50 [3] | IC50 (Cytochrome P450 3A4) | Ki (Cytochrome P450 3A4) | IC50 [4] | IC50 (Glucocorticoid receptor) | IC50 [5] | Ki [5]

CS(=O)(=O)c1ccc([C@@H](O)[C@@H](CO)NC(=O)C(Cl)Cl)cc1 [THIAMPHENICOL]
Not Active: IC50 [1] | IC50 [2] | IC50 [3] | IC50 (Cytochrome P450 3A4) | Ki (Cytochrome P450 3A4) | IC50 [4] | IC50 (Glucocorticoid receptor) | IC50 [5] | Ki [5]

CC(C)Oc1ccc2c(=O)c(-c3ccccc3)coc2c1 [IPRIFLAVONE]
Not Active: IC50 [1] | IC50 [2] | IC50 [3] | IC50 (Cytochrome P450 3A4) | Ki (Cytochrome P450 3A4) | IC50 [4] | IC50 (Glucocorticoid receptor) | IC50 [5] | Ki [5]

CCN1CCC[C@H]1CNC(=O)c1cc(S(N)(=O)=O)ccc1OC [LEVOSULPIRIDE]
Not Active: IC50 [1] | IC50 [2] | IC50 [3] | IC50 (Cytochrome P450 3A4) | Ki (Cytochrome P450 3A4) | IC50 [4] | IC50 (Glucocorticoid receptor) | IC50 [5] | Ki [5]
